Measurements: the supplement of paper PMC10307832

Assays:
Experiment in all cases: relative viability (nuclei count vs DMSO), 5 days (fraction); higher = more cells survive
Ibrutinib + Trametinib = compound: C=CC(=O)N1CCC[C@@H](n2nc(-c3ccc(Oc4ccccc4)cc3)c3c(N)ncnc32)C1 [Ibrutinib] + CC(=O)Nc1cccc(-n2c(=O)n(C3CC3)c(=O)c3c(Nc4ccc(I)cc4F)n(C)c(=O)c(C)c32)c1 [Trametinib] (partner 0.02 µM)
How it was run: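 Lung cancer cell lines in 1536-well plates were dosed by pin tool the day after seeding, either with one drug alone or with a fixed anchor-drug dose plus five library-drug doses (not always all listed) in √10 steps. After 5 days, cells were fixed and their nuclei stained in one step (final 0.05% Triton X-100, 1% formaldehyde, 1 ug/ml Hoechst), then counted on 4× images. Relative viability is the nuclei count in treated wells divided by that in vehicle wells. Values are medians of duplicate plates.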

BMX-IN-1 = compound: C=CC(=O)Nc1cc(-n2c(=O)ccc3cnc4ccc(-c5ccc(NS(C)(=O)=O)cc5)cc4c32)ccc1C [BMX-IN-1]
How it was run: (§1)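 Nuclei counted with MetaXpress define viability as the ratio of treated to vehicle wells, given as a median across plates. The lung cancer cell lines were in 1536-well plates, pinned with five √10-spaced library-drug doses and imaged at 4× after 5 days and Hoechst staining. Plates passed with control CV below 25% and at least one doubling.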

PAC-1 = compound: C=CCc1cccc(/C=N/NC(=O)CN2CCN(Cc3ccccc3)CC2)c1O [PAC-1]
How it was run: as §1

Ibrutinib = compound: C=CC(=O)N1CCC[C@@H](n2nc(-c3ccc(Oc4ccccc4)cc3)c3c(N)ncnc32)C1 [Ibrutinib]
How it was run: as §1

Cell Line | relative viability (Ibrutinib + Trametinib; first compound 0.005 µM) | relative viability (Ibrutinib + Trametinib; first compound 0.01581 µM) | relative viability (Ibrutinib + Trametinib; first compound 0.05 µM) | relative viability (Ibrutinib + Trametinib; first compound 0.1581 µM) | relative viability (Ibrutinib + Trametinib; first compound 0.5 µM) | relative viability (BMX-IN-1; 0.02 µM) | relative viability (BMX-IN-1; 0.2 µM) | relative viability (BMX-IN-1; 0.6325 µM) | relative viability (BMX-IN-1; 2 µM) | relative viability (PAC-1; 0.02 µM) | relative viability (PAC-1; 0.06325 µM) | relative viability (PAC-1; 0.2 µM) | relative viability (PAC-1; 2 µM) | relative viability (Ibrutinib; 0.005 µM) | relative viability (Ibrutinib; 0.01581 µM) | relative viability (Ibrutinib; 0.05 µM) | relative viability (Ibrutinib; 0.1581 µM) | relative viability (Ibrutinib; 0.5 µM)
NCI-H2085 | 0.499 | 0.548 | 0.566 | 0.661 | 0.463 | 1.03 | 0.997 | 1 | 1.01 | 1.05 | 1.02 | 0.989 | 0.98 | 0.997 | 0.974 | 0.902 | 0.882 | 0.905
HCC-78 | – | 0.569 | 0.622 | 0.698 | 0.706 | 1.01 | 1.08 | 1.02 | 0.952 | 1.01 | 0.892 | 0.974 | 1.11 | 0.904 | 0.97 | 0.916 | 0.748 | 0.691
NCI-H647 | 0.415 | 0.445 | 0.478 | 0.443 | 0.529 | 1.32 | 1.07 | 0.957 | 0.96 | 0.985 | 0.995 | 0.892 | 0.933 | 0.724 | 0.855 | 0.86 | 0.876 | 0.879
NCI-H1299 | – | – | – | – | – | 1.09 | 1.08 | 1.07 | 1.06 | 1.03 | 0.979 | 1 | 1.01 | 1.02 | 1.01 | 1.05 | 1.01 | 1.05
LU99A | 0.532 | 0.575 | 0.528 | 0.574 | 0.553 | 0.986 | 0.95 | 1.06 | 0.962 | 0.908 | 0.977 | 0.892 | 0.954 | 0.992 | 0.884 | 0.892 | 1.06 | 0.939
A549 | – | – | – | – | – | 1.17 | 1.17 | 1.05 | 1.07 | 0.994 | 0.962 | 0.943 | 0.96 | 0.884 | 0.891 | 1 | 0.988 | 0.935
HARA | 0.719 | 0.633 | 0.638 | 0.78 | 0.262 | 1.05 | 1.04 | 1.08 | 1.08 | 0.98 | 1.08 | 0.905 | 1.03 | 0.976 | 0.965 | 0.689 | 0.793 | 0.457
NCI-H1944 | 0.423 | 0.369 | 0.395 | 0.363 | 0.374 | 1.07 | 1.08 | 1.18 | 0.947 | 0.964 | 0.947 | 0.902 | 1.02 | 0.887 | 0.851 | 0.858 | 0.772 | 0.832
LCLC-103H | 0.677 | 0.645 | 0.716 | 0.739 | 0.605 | 1.09 | 1.1 | 1.07 | 1.1 | 1 | 0.975 | 1.02 | 1.01 | 0.966 | 0.999 | 0.965 | 0.882 | 0.946
NCI-H1792 | – | 0.404 | 0.48 | 0.44 | 0.36 | 1.03 | 1.2 | 1.5 | 0.991 | 0.951 | 0.991 | 0.996 | 0.95 | – | 1.06 | 0.925 | 0.567 | 0.762
Calu-6 | – | – | – | – | – | 1.14 | 1.06 | 1.2 | 0.999 | 0.98 | 1.01 | 0.964 | 1.01 | 1.1 | 0.965 | 1 | 1.01 | 1.03
SW 900 | 0.86 | 0.654 | 0.803 | 0.901 | 0.603 | 0.971 | 0.886 | 0.911 | 1.09 | 0.766 | 1.02 | 0.815 | 0.792 | 0.578 | 0.693 | 0.873 | 0.708 | 0.845
LOU-NH91 | 0.744 | 0.74 | 0.725 | 0.783 | 0.655 | – | 0.973 | 1.08 | 0.989 | 0.891 | 0.959 | 0.917 | 0.972 | 0.801 | 0.926 | 0.848 | 0.884 | 0.678
HCC-366 | 0.34 | 0.366 | 0.317 | 0.394 | 0.391 | 1.13 | 1.09 | 1.05 | 1.04 | 0.997 | 0.979 | 1.02 | 1.03 | 1 | 0.962 | 0.968 | 0.913 | 1
CAL-12T | 0.236 | 0.297 | 0.3 | 0.382 | 0.298 | 1.08 | 0.995 | 1.03 | 0.989 | 1.02 | 1.11 | 0.984 | 0.947 | 0.824 | 0.907 | 0.902 | 0.932 | 0.678
NCI-H1355 | – | 0.395 | 0.363 | 0.433 | 0.368 | 1.03 | 1.06 | 1.11 | 1.12 | 0.983 | 1.02 | 0.968 | 1.06 | – | 0.975 | 1.02 | 0.826 | 0.843
ABC-1 | – | – | – | – | – | 1.05 | 1.02 | 1.01 | 1.05 | 0.992 | 0.952 | 0.975 | 0.887 | 0.907 | 0.761 | 0.887 | 0.744 | 0.94
NCI-H2405 | 0.546 | 0.558 | – | – | 0.448 | 0.982 | 1.01 | 1.09 | 1.04 | 1.04 | 1 | 1.01 | 1.09 | 0.924 | – | 0.832 | 0.713 | 0.973
NCI-H1648 | 0.565 | 0.433 | 0.316 | 0.418 | 0.257 | 0.937 | 0.878 | 0.792 | 0.829 | 0.795 | 1.07 | 0.931 | 0.991 | 0.758 | 0.751 | 0.676 | 0.792 | 0.63
